Values joined by “and” are separate entries in the source; they are usually repeats but may differ in a detail not shown here. Identical values can stand only once.

Experimental findings from ChEMBL document CHEMBL5661980, “Discovery of OSI-906: a selective and orally efficacious dual inhibitor of the IGF-1 receptor and insulin receptor” (Future Med Chem, 2009) are described below.

Data set [1] can be described thus: Oral bioavailability in CD-1 mouse administered at 50 mg/kg measured after 1 to 24 hrs by HPLC-MS/MS analysis. The note with it: in vivo, time 1-24 hrs. Type of data set: ADME, organism-based.
Data set [2] addresses T1, Insulin-like growth factor 1 receptor (Homo sapiens, UniProt P08069). Briefly: Inhibition of human recombinant IGF-1 receptor expressed in mouse 3T3 cells treated for 15 mins by ELISA analysis. The class given is cell-based.
Data set [3] is described as follows: AUC (0 to infinity) in CD-1 mouse at 50 mg/kg, po measured after 1 to 24 hrs by HPLC-MS/MS analysis. Type of data set: ADME, organism-based. Particulars: in vivo, time 1-24 hrs.
Data set [4] is described as follows: Cmax in CD-1 mouse at 50 mg/kg, po measured after 1 to 24 hrs by HPLC-MS/MS analysis. Type of data set: ADME, organism-based. Particulars: in vivo, time 1-24 hrs.
Data set [5] in a line: Plasma concentration in athymic nu/nu CD-1 mouse at 100 mg/kg, po measured at 1 hr by HPLC - UV analysis. Type of data set: ADME, organism-based.
A short description of data set [6]: Plasma concentration in athymic nu/nu CD-1 mouse at 100 mg/kg, po measured at 4 hrs by HPLC - UV analysis. The class given is ADME, organism-based.
Data set [7] in a line: Plasma concentration in athymic nu/nu CD-1 mouse at 100 mg/kg, po measured at 16 hrs by HPLC - UV analysis. Type of data set: ADME, organism-based.
Data set [8] in a line: Plasma concentration in athymic nu/nu CD-1 mouse at 100 mg/kg, po measured at 8 hrs by HPLC - UV analysis. Type of data set: ADME, organism-based.
A short description of data set [9]: Elimination half life in CD-1 mouse at 50 mg/kg, po measured after 1 to 24 hrs by HPLC-MS/MS analysis. Type of data set: ADME, organism-based. The note with it: in vivo, time 1-24 hrs, read-out: beta t1/2 (converted).
Data set [10] in a line: Elimination half life in CD-1 mouse at 5 mg/kg, iv measured after 1 to 24 hrs by HPLC-MS/MS analysis. The class given is ADME, organism-based. Particulars: in vivo, time 1-24 hrs, read-out: beta t1/2 (converted).
Data set [11] in a line: Volume of distribution at steady state in CD-1 mouse at 5 mg/kg, iv measured after 1 to 24 hrs by HPLC-MS/MS analysis. The class given is ADME, organism-based. The note with it: in vivo, time 1-24 hrs, read-out: Vdss.
Data set [12] is described as follows: Clearance in CD-1 mouse at 5 mg/kg, iv measured after 1 to 24 hrs by HPLC-MS/MS analysis. Type of data set: ADME, organism-based. Particulars: in vivo, time 1-24 hrs.
The target in the next data set is Cytochrome P450 3A4 (Homo sapiens, UniProt P08684). Briefly: Inhibition of CYP3A4 (unknown origin) using luciferin as substrate in presence of NADPH generating system incubated for 20 mins by luminescent method. The class given is ADME.
The target of data set [13] is T1, Insulin-like growth factor 1 receptor. Put plainly: Inhibition of human recombinant IGF-1 receptor in presence of ATP by ELISA analysis. On the technique in general: In an ELISA, binding on a coated surface is turned into a signal by an enzyme label.
Data set [14] can be described thus: Volume of distribution at steady state in CD-1 mouse at 10 mg/kg, iv measured after 1 to 24 hrs by HPLC-MS/MS analysis. The class given is ADME, organism-based. The note with it: in vivo, time 1-24 hrs, read-out: Vdss.
The nature of data set [15]: in vitro. The note with it: mouse, liver microsomes. In general terms: Liver microsomes are vesicles of endoplasmic reticulum, rich in cytochrome P450 enzymes.
Description: Microsomal stability in mouse liver microsomes assessed as extraction ratio in presence of NADPH for 0 to 40 mins by LC-MS/MS analysis
Data set [16] in a line: Microsomal stability in dog liver microsomes assessed as extraction ratio in presence of NADPH for 0 to 40 mins by LC-MS/MS analysis. Particulars: time 0-40 min, read-out: ERH. Type of data set: ADME, Canis lupus familiaris, Microsome.
The nature of data set [17]: Volume of distribution at steady state in Sprague-Dawley rat at 5 mg/kg, iv measured after 1 to 24 hrs by HPLC-MS/MS analysis. The class given is ADME, organism-based. The note with it: in vivo, time 1-24 hrs, read-out: Vdss.
Data set [18] in a line: AUC (0 to infinity) in Sprague-Dawley rat at 20 mg/kg, po measured after 1 to 24 hrs by HPLC-MS/MS analysis. Particulars: in vivo, time 1-24 hrs. The class given is ADME, organism-based.
Data set [19] in a line: Oral bioavailability in CD-1 mouse administered at 25 mg/kg measured after 1 to 24 hrs by HPLC-MS/MS analysis. The class given is ADME, organism-based. Particulars: in vivo, time 1-24 hrs.
A short description of data set [20]: Clearance in Sprague-Dawley rat at 5 mg/kg, iv measured after 1 to 24 hrs by HPLC-MS/MS analysis. Particulars: in vivo, time 1-24 hrs. The class given is ADME, organism-based.
A short description of data set [21]: Elimination half life in CD-1 mouse at 10 mg/kg, iv measured after 1 to 24 hrs by HPLC-MS/MS analysis. Type of data set: ADME, organism-based. Particulars: in vivo, time 1-24 hrs, read-out: beta t1/2 (converted).
Data set [22] in a line: Microsomal stability in rat liver microsomes assessed as extraction ratio in presence of NADPH for 0 to 40 mins by LC-MS/MS analysis. The class given is ADME, Microsome. Particulars: time 0-40 min, read-out: ERH.
Data set [23] in a line: Cmax in CD-1 mouse at 25 mg/kg, po measured after 1 to 24 hrs by HPLC-MS/MS analysis. The class given is ADME, organism-based. The note with it: in vivo, time 1-24 hrs.
Data set [24] can be described thus: Elimination half life in Sprague-Dawley rat at 5 mg/kg, iv measured after 1 to 24 hrs by HPLC-MS/MS analysis. The class given is ADME, organism-based. Particulars: in vivo, time 1-24 hrs, read-out: beta t1/2 (converted).
A short description of data set [25]: Plasma concentration in CD-1 mouse at 25 mg/kg, po measured after 24 hrs by HPLC-MS/MS analysis. Type of data set: ADME, organism-based.
The nature of data set [26]: Oral bioavailability in Sprague-Dawley rat administered at 20 mg/kg measured after 1 to 24 hrs by HPLC-MS/MS analysis. Type of data set: ADME, organism-based. The note with it: in vivo, time 1-24 hrs.
A short description of data set [27]: AUC (0 to infinity) in CD-1 mouse at 25 mg/kg, po measured after 1 to 24 hrs by HPLC-MS/MS analysis. Type of data set: ADME, organism-based. The note with it: in vivo, time 1-24 hrs.
Data set [28] is described as follows: Cmax in Sprague-Dawley rat at 20 mg/kg, po measured after 1 to 24 hrs by HPLC-MS/MS analysis. The class given is ADME, organism-based. The note with it: in vivo, time 1-24 hrs.
Data set [29] is described as follows: Plasma concentration in Sprague-Dawley rat at 20 mg/kg, po measured after 24 hrs by HPLC-MS/MS analysis. Type of data set: ADME, organism-based.
Data set [30] in a line: Clearance in CD-1 mouse at 10 mg/kg, iv measured after 1 to 24 hrs by HPLC-MS/MS analysis. The note with it: in vivo, time 1-24 hrs. The class given is ADME, organism-based.
The nature of data set [31]: Elimination half life in CD-1 mouse at 25 mg/kg, po measured after 1 to 24 hrs by HPLC-MS/MS analysis. Type of data set: ADME, organism-based. Particulars: in vivo, time 1-24 hrs, read-out: beta t1/2 (converted).
Data set [32] can be described thus: in vitro. Particulars: human, liver microsomes.
Description: Microsomal stability in human liver microsomes assessed as extraction ratio in presence of NADPH for 0 to 40 mins by LC-MS/MS analysis
Data set [33] can be described thus: Elimination half life in Sprague-Dawley rat at 20 mg/kg, po measured after 1 to 24 hrs by HPLC-MS/MS analysis. The class given is ADME, organism-based. The note with it: in vivo, time 1-24 hrs, read-out: beta t1/2 (converted).

T1 sequence (P08069 31-736 limits assumed): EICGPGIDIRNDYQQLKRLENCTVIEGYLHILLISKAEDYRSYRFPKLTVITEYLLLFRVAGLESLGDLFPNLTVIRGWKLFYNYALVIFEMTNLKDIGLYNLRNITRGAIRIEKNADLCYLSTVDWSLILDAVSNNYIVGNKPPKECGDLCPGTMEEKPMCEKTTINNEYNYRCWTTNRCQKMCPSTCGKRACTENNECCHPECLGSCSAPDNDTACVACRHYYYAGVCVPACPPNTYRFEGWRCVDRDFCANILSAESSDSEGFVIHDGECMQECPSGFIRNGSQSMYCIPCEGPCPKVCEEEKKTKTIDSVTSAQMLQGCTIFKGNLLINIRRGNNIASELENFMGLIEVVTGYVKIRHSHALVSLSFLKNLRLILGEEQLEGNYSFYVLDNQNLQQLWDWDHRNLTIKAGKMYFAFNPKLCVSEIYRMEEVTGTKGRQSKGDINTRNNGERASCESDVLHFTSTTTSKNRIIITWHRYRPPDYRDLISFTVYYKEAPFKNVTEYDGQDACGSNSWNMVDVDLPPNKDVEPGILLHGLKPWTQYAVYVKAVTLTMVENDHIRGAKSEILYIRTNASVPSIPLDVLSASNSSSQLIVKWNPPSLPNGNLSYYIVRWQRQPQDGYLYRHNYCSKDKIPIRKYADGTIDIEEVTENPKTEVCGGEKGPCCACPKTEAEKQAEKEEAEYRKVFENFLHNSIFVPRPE
T1 sequence (P08069 741-1367 limits assumed): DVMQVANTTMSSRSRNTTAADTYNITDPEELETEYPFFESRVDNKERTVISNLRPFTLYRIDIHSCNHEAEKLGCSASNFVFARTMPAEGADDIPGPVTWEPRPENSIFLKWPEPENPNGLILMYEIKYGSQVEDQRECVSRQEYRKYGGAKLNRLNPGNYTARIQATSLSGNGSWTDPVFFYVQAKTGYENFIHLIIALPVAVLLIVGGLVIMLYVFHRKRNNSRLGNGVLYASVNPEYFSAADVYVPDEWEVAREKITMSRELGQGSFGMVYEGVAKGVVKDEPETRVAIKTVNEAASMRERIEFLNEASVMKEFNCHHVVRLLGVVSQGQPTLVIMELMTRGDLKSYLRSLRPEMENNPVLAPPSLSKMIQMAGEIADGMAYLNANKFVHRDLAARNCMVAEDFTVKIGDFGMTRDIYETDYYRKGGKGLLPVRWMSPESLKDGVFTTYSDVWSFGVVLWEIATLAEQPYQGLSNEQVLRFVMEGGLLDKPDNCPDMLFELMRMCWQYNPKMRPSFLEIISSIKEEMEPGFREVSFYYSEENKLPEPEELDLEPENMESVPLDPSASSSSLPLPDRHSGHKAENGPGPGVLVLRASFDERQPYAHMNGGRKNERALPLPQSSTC
Sequence of Cytochrome P450 3A4 (P08684 whole entry): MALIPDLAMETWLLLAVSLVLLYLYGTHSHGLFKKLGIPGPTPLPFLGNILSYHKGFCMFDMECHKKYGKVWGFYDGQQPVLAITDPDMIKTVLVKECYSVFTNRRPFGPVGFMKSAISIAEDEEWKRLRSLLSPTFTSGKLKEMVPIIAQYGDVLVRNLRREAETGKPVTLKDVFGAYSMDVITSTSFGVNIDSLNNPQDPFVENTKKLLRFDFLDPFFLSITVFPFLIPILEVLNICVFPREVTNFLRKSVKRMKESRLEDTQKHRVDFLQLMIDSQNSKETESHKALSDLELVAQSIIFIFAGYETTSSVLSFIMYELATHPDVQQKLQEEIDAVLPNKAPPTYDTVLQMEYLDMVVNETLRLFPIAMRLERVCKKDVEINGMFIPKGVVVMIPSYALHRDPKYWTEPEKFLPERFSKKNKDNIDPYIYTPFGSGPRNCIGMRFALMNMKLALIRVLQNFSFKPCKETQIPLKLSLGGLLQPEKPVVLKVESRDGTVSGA

As for `Nc1nccn2c1c(-c1ccc3ccc(-c4ccccc4)nc3c1)nc2[C@H]1CC[C@H](C(N)=O)CC1`, the bioavailability in data set [1] is 77%. For the same compound, in data set [2], the IC50 worked out at 42 nM. The compound also showed an AUC(0-inf) in [3] of 52500 ng·h/mL. This compound registered a Cmax in data set [4] of 11.3 µM.

In the case of `Nc1nccn2c(C3CC(O)C3)nc(-c3ccc4ccc(-c5ccccc5)nc4c3)c12` (stereo not drawn), in [5], the concentration at 1 h is 4590 ng/mL and 11.3 µM. In addition, the concentration at 4 h in data set [6] is 3660 ng/mL and 8.99 µM. For the same compound, the concentration at 16 h in [7] was 2360 ng/mL and 5.8 µM. Also, in data set [8], the concentration at 8 h is 4650 ng/mL and 11.4 µM.

Consider `Nc1nccn2c(C3CCC3)nc(-c3ccc4ccc(-c5ccccc5)nc4c3)c12`, for which the concentration at 1 h in data set [5] is 3200 ng/mL and 8.19 µM. Further, the half-life in data set [9] and in data set [10] was 58.8 min each time. Moreover, the bioavailability in data set [1] came to 56%. The concentration at 4 h in data set [6] is 1810 ng/mL and 4.62 µM. The Vd in data set [11] was 6.25 L/kg. Moreover, in data set [7], the concentration at 16 h is 1030 ng/mL and 2.64 µM. This compound returned an AUC(0-inf) in data set [3] of 5170 ng·h/mL. This compound also registered a clearance in data set [12] of 90 mL/min/kg. For the same compound, at Cytochrome P450 3A4, the IC50 amounted to 3.3 µM. The concentration at 8 h in [8] is 3110 ng/mL and 7.95 µM. The compound also returned a Cmax in data set [4] of 2.68 µM.

On to `CN1CCN([C@H]2C[C@@H](c3nc(-c4ccc5ccc(-c6ccccc6)nc5c4)c4c(N)nccn43)C2)CC1`, for which the 50% inhibitory concentration (IC50) stood at 24 nM in data set [13], 19 nM in data set [2] and 8.3 µM at Cytochrome P450 3A4. The Vd in data set [14] was 8 L/kg; in [17], 21 L/kg. For the same compound, the hepatic extraction ratio in the data set “in vitro [15]” is 0.53; in data set [16] it was 0.5; in [22], 0.21; in “in vitro [32]” it was 0.59. For the same compound, the AUC(0-inf) in data set [18] is 28700 ng·h/mL; in [27], 34500 ng·h/mL. For the same compound, the bioavailability in data set [19] and in data set [26] was 100% in each case. Besides, the clearance in [20] was 16 mL/min/kg; in [30], 19 mL/min/kg. Moreover, the half-life is 300 min in data set [21], 1200 min in data set [24], 1420 min in data set [31] and 1720 min in [33]. Also, the Cmax in data set [23] worked out at 2200 nM; in data set [28], 1350 nM. The concentration at 24 h in data set [25] worked out at 1040 nM; in [29] it was 740 nM.

By bioavailability is commonly meant dose-corrected exposure relative to a reference, in per cent. Read a high bioavailability as good availability. In general, IC50 refers to the midpoint of a concentration-inhibition curve. As a reminder, the AUC(0-inf) is the area under the concentration-time curve extrapolated to infinity. The Cmax is the highest concentration seen after dosing. Broadly, the clearance is a measure of how efficiently the substance is removed, as volume per time.
